Test results: publication PMC13237374 (Communications Chemistry, 2026)

Key:
Assay type in all cases: physicochemical
[1] = Low-seeded (1% seed:monomer) ThT aggregation assay of medin
Experimental: After removing outliers manually, the resultant data from kinetic assays were normalized and analyzed using the online platform AmyloFit 2.0[46] made for global aggregation kinetic data-fitting. […] Half-times of unseeded aggregation assays were calculated in the AmyloFit 2.0 platform. For comparison of aggregation half-times of unseeded and low-seeded reactions, data were normalized and fitted using GraphPad Prism 2.0 with2 y=ymin+ymax−ymin/1+t1/2/t^c where y is the normalized ThT fluorescence and c is a constant. […]

[2] = Global kinetic fitting (AmyloFit 2.0) of unseeded, low-seeded and high-seeded medin ThT data
Experimental: (§1) After removing outliers manually, the resultant data from kinetic assays were normalized and analyzed using the online platform AmyloFit 2.0[46] made for global aggregation kinetic data-fitting. All data representations have been produced in GraphPad Prism 2.0. Half-times of unseeded aggregation assays were calculated in the AmyloFit 2.0 platform. For comparison of aggregation half-times of unseeded and low-seeded reactions, data were normalized and fitted using GraphPad Prism 2.0 with2 y=ymin+ymax−ymin/1+t1/2/t^c where y is the normalized ThT fluorescence and c is a constant. All data were fitted with the corresponding model using 50 basin hops to ensure convergence, and the fit with the least MSE was considered the best fit. Two models were used with the consideration of the presence or absence of seeds: secondary nucleation dominated[11] and fragmentation dominated mechanisms. […] The average fibril length for pre-formed aggregate seeds was assumed to be 10,000 monomers.

[3] = High-seeded (20–50% seed:total protein) ThT aggregation assay of medin; conditions: for Elongation rate constant k+, fit result: high-seeded assay fitted individually
Experimental: (§2) All assays were carried out at 37 °C in quiescent conditions at 100 µL sample volume per well in 96-well half-area non-binding plates (Corning 3881), with an aluminum film coating to minimize evaporation. […] ThT fluorescence emission at 480 nm, when excited at 440 nm, was monitored using a FLUOstar Omega plate-reader (BMG Labtech GmbH, Germany) using a cycle time of 180 s with 40 flashes per reading and 0.2 s settling time per cycle. The unseeded reactions were repeated thrice using three different batches of protein.
Amyloid aggregation was monitored using 20 µM ThT in replicate wells. The overnight-grown fibrils were sonicated for 15 s at 50% duty cycle and 10% power using a microtip sonicator (Bandelin Sonopuls, Germany) to produce seeds for subsequent seeded aggregation assays.
as §1

[4] = Dynamic light scattering (DLS) of medin
Experimental: Samples were withdrawn at different time intervals, and the particle size distribution was monitored at 20 °C in a Malvern Zetasizer Nano instrument (Malvern Instruments Limited, United Kingdom) at 70 µL volume (N = 3, n = 3). Two outliers were removed manually before data analysis.

[5] = Salt (NaCl) titration of medin ThT aggregation kinetics; conditions: [Medin] 75 nM, N = 1, n = 5
Experimental: as §2
For salt titration experiments, 20 mM NaPi 1 M NaCl 0.2 mM EDTA pH 7.4 was diluted to the final reaction mixtures at final NaCl concentrations of 0, 40, 150, and 500 mM before incubation in replicate wells of a non-binding plate and monitoring of aggregation kinetics as described above.
as §1

[6] = Critical concentration of medin aggregation from ThT amplitude; conditions: half-maximal point of sigmoidal fit of ThT amplitude at 0–40 nM monomer; 20 µM ThT, pH 7.4, 37 °C, quiescent
[7] = Unseeded ThT aggregation kinetics of medin monomer; conditions: for Primary nucleation order nc, fit result: unseeded assay fitted individually
Experimental: After removing outliers manually, the resultant data from kinetic assays were normalized and analyzed using the online platform AmyloFit 2.0[46] made for global aggregation kinetic data-fitting. […] Half-times of unseeded aggregation assays were calculated in the AmyloFit 2.0 platform. For comparison of aggregation half-times of unseeded and low-seeded reactions, data were normalized and fitted using GraphPad Prism 2.0 with2 y=ymin+ymax−ymin/1+t1/2/t^c where y is the normalized ThT fluorescence and c is a constant. All data were fitted with the corresponding model using 50 basin hops to ensure convergence, and the fit with the least MSE was considered the best fit. Two models were used with the consideration of the presence or absence of seeds: secondary nucleation dominated[11] and fragmentation dominated mechanisms[45]. […] The average fibril length for pre-formed aggregate seeds was assumed to be 10,000 monomers[46].

[8] = Aβ42 ThT aggregation assay
Experimental: It was incubated at different concentrations in the presence of 20 μM ThT quiescently at 37 °C in 96-well half-area non-binding plates (Corning 3881), with 100 μL per well and five replicate wells per concentration. An aluminum film coating minimized evaporation. The fluorescence emission of ThT at 480 nm upon excitation at 440 nm was monitored using a FLUOstar Omega plate-reader (BMG Labtech GmbH, Germany) using a cycle time of 300 s with 40 flashes per reading and 0.2 s settling time per cycle.

[9] = secondary nucleation dominated model
[10] = global data analysis, fragmentation dominated
[11] = global data analysis, secondary nucleation dominated
[12] = unseeded assays, N = 3, fragmentation dominated, no seed
[13] = unseeded assays, N = 3, secondary nucleation dominated, no seed

Which results are given for “medin: 50-residue peptide cleaved from lactadherin, forms aortic medial amyloid; produced recombinantly in E. coli”?
rate constant of the monomer-independent secondary pathway (k2 or k−) ([1]; 50–[…] monomer, pH 7.4, 37 °C, 20 µM ThT): 4e-08 s⁻¹; secondary nucleation reaction order n2 [1, 9]: ~ 0; primary nucleation reaction order nc ([2]; global analysis of all assays): ~1; primary nucleation rate constant kn ([2]; global analysis of unseeded, low-seeded and high-seeded data, saturated secondary nucleation (n2 = 0) or fragmentation model): 1e-08 s⁻¹; Elongation rate constant k+, fit result [2, 10]: 9.53e+06 M⁻¹ s⁻¹; Primary nucleation order nc, fit result [2, 10]: ~ 1; Primary nucleation rate constant kn, fit result [2, 10]: 1.15e-08 s⁻¹; Secondary pathway rate constant k−, fit result [2, 10]: 3.14e-07 s⁻¹; Elongation rate constant k+, fit result [2, 11]: 9.46e+06 M⁻¹ s⁻¹; Primary nucleation order nc, fit result [2, 11]: ~ 1; Primary nucleation rate constant kn, fit result [2, 11]: 1.13e-08 s⁻¹; Secondary nucleation order n2, fit result [2, 11]: ~ 0; Secondary pathway rate constant k2, fit result [2, 11]: 3.23e-07 s⁻¹; elongation rate constant ([3]; as printed in the Introduction, physiological pH and temperature in vitro): ~ 10^7 s^−1; Elongation rate constant k+, fit result ([3]; fragmentation dominated model): 5.4e+07 M⁻¹ s⁻¹; Elongation rate constant k+, fit result [3, 9]: 5.34e+07 M⁻¹ s⁻¹; elongation rate constant k+ ([3]; high-seeded: 187.5–500 nM monomer + 187.5 nM pre-formed fibrils (20–50% seed:total protein), pH 7.4, 37 °C, quiescent, 20 µM ThT, AmyloFit fit of first phase): 5e+07 M⁻¹ s⁻¹; hydrodynamic diameter of aggregates ([4]; 10 µM medin after quiescent incubation at pH 7.4 and 37 °C, DLS): 200–3200 nm; incubation time until first traces of higher molecular weight species ([4]; 10 µM medin monomer on ice, DLS): at least 1.5 hours; hydrodynamic diameters of monomeric and initial oligomeric species ([4]; 10 µM medin, DLS at 20 °C, N = 3, n = 3): 0.4–6 nm; mean hydrodynamic diameter ([4]; purely monomeric medin, 10 µM in aggregation assay buffer, freshly eluted): 0.67 nm; Mean t1/2 ([5]; [NaCl] 0 mM): 3.2 h; Mean t1/2 ([5]; [NaCl] 40 mM): 2.4 h; Mean t1/2 ([5]; [NaCl] 150 mM): 2.5 h; Mean t1/2 ([5]; [NaCl] 500 mM): 2.4 h; critical concentration of medin aggregation [6]: ~ 14 nM; aggregation of 10 nM medin monomer ([7]; 10 nM monomer, over 16 h, ThT): no aggregation; lowest concentration at which amyloid fibrils form spontaneously ([7]; physiological pH and temperature, quiescent solution): 25 nM; Primary nucleation order nc, fit result ([7]; fragmentation dominated, no seed): ~ 1; Primary nucleation order nc, fit result ([7]; secondary nucleation dominated, no seed): ~ 1; primary nucleation reaction order nc ([7]; unseeded assay, secondary nucleation- or fragmentation-dominated spontaneous aggregation model): ~ 1; Combined rate constant k+kn, average value [7, 12]: 7.3 M-1s-2; Combined rate constant k+k−, average value [7, 12]: 1.7 M-1s-2; Primary nucleation reaction order nc, average value [7, 12]: 1.4; Combined rate constant k+k2, average value [7, 13]: 22.3 M-1s-2; Primary nucleation reaction order nc, average value [7, 13]: ~ 1; Secondary nucleation reaction order n2, average value [7, 13]: ~ 0; Combined rate constant k+kn, average value ([7]; unseeded assays, biological replicates N = 3 (different batches), secondary nucleation dominated, no seed): 0.1 M-1s-2

For “Aβ42: human amyloid-β 42 peptide, recombinantly produced, comparator amyloid”, which “concentrations at which no aggregation was observed within 24 hours” value ([8]; 20 mM NaPi 0.2 mM EDTA pH 7.4, 37 °C, quiescent, 20 µM ThT) is on record?
The value was “below 117 nM”.

And the “aggregation half-time t1/2” value ([8]; […] Aβ42, pH 7.4, 37 °C)?
Its value is 1.9 h.
